Results taken from patent US12134610B2, “Somatostatin subtype-2 receptor (SST2R) targeted therapeutics and uses thereof” (priority 2022, dated 2024).
Like-named read-outs stand apart in the source and are kept apart here. Starred links: 1 amine or outer side, 2 acyl side, 3 side chain; linkers in the order of their positions; H or OH if unused. Non-standard residues stand in square brackets, D forms with d. Residues, ends and D or L forms follow the SMILES beside them. *: point of attachment. PABC(3-O-βDGlc) = O=C(OCc1ccc(N[*:1])c(O[C@@H]2O[C@H](CO)[C@@H](O)[C@H](O)[C@H]2O)c1)[*:2]; X1 = Cc1cc(F)cc(-c2cnc(NCCNC(=O)CCOCCC(=O)*)c(-c3nc4ccc(Cl)cc4[nH]3)c2N2CCC(N)CC2)c1; Dolaproine = CO[C@@H]([C@@H]1CCCN1)[C@@H](C)C(=O)O; Dil = CC[C@H](C)[C@H](NC)[C@@H](CC(=O)O)OC; PABC = O=C(OCc1ccc(N[*:1])cc1)[*:2]; X2 = C[C@@H](N*)[C@@H](O)c1ccccc1; Cit = NC(=O)NCCC[C@H](N)C(=O)O; NMeV = CN[C@H](C(=O)O)C(C)C

Assays:
Type in all cases: cell-based
[1] = tested on: NCI-H524 (ATCC) human small cell lung cancer cells
How it was run: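 CellTiter-Glo luminescence after a 2 h SMDC pulse (top dose 1 uM, 2-fold dilutions, 11 points), medium wash, then 70 h recovery. Cells were seeded at 5,000/well and dosed 24 h later. % inhibition vs control gave IC50 via four-parameter fit.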

[2] = molecular target: T1, SST2 (Homo sapiens, UniProt P30874); assay: PathHunter CHO-K1 SST2 internalization assay; conditions: PathHunter CHO-K1 SST2, 90 min
T1 construct: host or cells: PathHunter CHO-K1 SST2 cells
T1 sequence (P30874 whole entry): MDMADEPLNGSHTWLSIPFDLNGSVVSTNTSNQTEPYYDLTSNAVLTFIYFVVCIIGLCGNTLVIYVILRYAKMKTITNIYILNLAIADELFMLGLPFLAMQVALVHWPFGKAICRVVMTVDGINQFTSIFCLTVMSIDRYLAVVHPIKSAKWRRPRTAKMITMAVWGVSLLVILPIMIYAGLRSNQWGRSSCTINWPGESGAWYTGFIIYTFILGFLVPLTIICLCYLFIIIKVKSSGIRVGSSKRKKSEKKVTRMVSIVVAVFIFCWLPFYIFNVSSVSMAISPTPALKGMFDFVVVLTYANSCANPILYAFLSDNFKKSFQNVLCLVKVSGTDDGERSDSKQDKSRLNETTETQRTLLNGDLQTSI
How it was run: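 IC50 comes from four-parameter curves on background-corrected duplicates of Beta-Glo luminescence, read after 60 min at room temperature in the dark. Before that, CHO-K1 SST2 internalization cells (48 h post-seeding) received SMDC as eleven threefold dilutions, 10 uM highest final, for 90 min at 37 C.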

[3] = molecular target: T2, human somatostatin receptor subtype 2 (Homo sapiens, UniProt P30874); assay: Functional cAMP assay for SSTR2 agonists (HTRF) in CHO-K1 cells; conditions: CHO-K1 cells stably expressing human SST2, 20 min
T2 construct: expressed in transfected cells
T2 sequence (P30874 whole entry): as above
How it was run: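 Agonism scored as loss of NKH477 (1.6 μM)-driven cAMP, with IBMX present, after 20 min, 37° C. exposure of stably transfected CHO-K1 cells to compound dilutions (typically 0-10,000 nM). Lysates read by time-resolved FRET; cAMP interpolated from standard curve and EC50 derived.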

[4] = 2 h treatment, washout, additional 70 h, read-out: H524 EC50

SMILES | EC50 [1, 4] | EC50 ([2]; Internalization EC50 (nM)) | EC50 ([3]; hSST2 cAMP Avg EC50 (nM)) | EC50 ([1]; 2 h) | EC50 ([2]; read-out: Internalization EC50) | EC50 ([3]; read-out: hSST2 cAMP Avg EC50)
CC[C@@]1(O)C(=O)OCc2c1cc1n(c2=O)Cc2c-1nc1cc(F)c(C)c3c1c2[C@@H](NC(=O)CCOCCC(=O)NCCNc1ncc(-c2cc(C)cc(F)c2)c(N2CCC(N)CC2)c1-c1nc2ccc(Cl)cc2[nH]1)CC3 [Compound 78, N-{2-[4-(4-amino-1-piperidyl)-3-(6-chloro-1H-1,3-benzimidazol-2-yl)-5-(3-fluoro-5-tolyl)-2-pyridylamino]ethyl}3-(2-{N-(10S,23S)-10-ethyl-18-fluoro-10-hydroxy-19-methyl-5,9-dioxo-8-oxa-4,15-diazahexacyclo[14.7.1.0^2,^14.0^4,^13.0^6,^11.0^20,^24]tetracosa-1,6(11),12,14,16,18,20(24)-heptaen-23-ylcarbamoyl}ethoxy)propionamide] | 170 nM | 0.77 nM | 0.23 nM | – | – | –
CC[C@H](C)[C@@H]([C@@H](CC(=O)N1CCC[C@H]1[C@H](OC)[C@@H](C)C(=O)N[C@H](C)[C@@H](O)c1ccccc1)OC)N(C)C(=O)[C@@H](NC(=O)[C@H](C(C)C)N(C)C(=O)OCc1ccc(NC(=O)[C@H](CCCNC(N)=O)NC(=O)[C@@H](NC(=O)CCOCCOCCOCCOCCC(=O)NCCNc2ncc(-c3cc(C)cc(F)c3)c(N3CCC(O)CC3)c2-c2nc3ccc(Cl)cc3[nH]2)C(C)C)cc1)C(C)C [Compound 31] | – | – | – | 1060 nM | > 1000 nM | 1700 nM
CCC(C)C(C(CC(=O)N1CCCC1C(OC)C(C)C(=O)NC(C)C(O)c1ccccc1)OC)N(C)C(=O)C(NC(=O)C(C(C)C)N(C)C(=O)OCc1ccc(NC(=O)[C@H](CCCNC(N)=O)NC(=O)[C@@H](NC(=O)CCOCCC(=O)NCCNc2ncc(-c3cc(C)cc(F)c3)c(N3CCC(N)CC3)c2-c2nc3ccc(Cl)cc3[nH]2)C(C)C)cc1)C(C)C (stereo in doubt) [Compound 26] | – | – | – | 10.6 nM | 11.6 nM | 0.3 nM
CC[C@H](C)[C@@H]([C@@H](CC(=O)N1CCC[C@H]1[C@H](OC)[C@@H](C)C(=O)N[C@H](C)[C@@H](O)c1ccccc1)OC)N(C)C(=O)[C@@H](NC(=O)[C@H](C(C)C)N(C)C(=O)OCc1ccc(NC(=O)[C@H](CCCNC(N)=O)NC(=O)[C@@H](NC(=O)[C@H](CCC(N)=O)NC(=O)CCOCCC(=O)NCCNc2ncc(-c3cc(C)cc(F)c3)c(N3CCC(N)CC3)c2-c2nc3ccc(Cl)cc3[nH]2)C(C)C)cc1)C(C)C [Compound 56] (X1-QV[Cit][PABC][NMeV]V[Dil][Dolaproine]-X2) | – | – | – | 10.3 nM | 15.1 nM | 0.23 nM
CC[C@H](C)[C@@H]([C@@H](CC(=O)N1CCC[C@H]1[C@H](OC)[C@@H](C)C(=O)N[C@H](C)[C@@H](O)c1ccccc1)OC)N(C)C(=O)[C@@H](NC(=O)[C@H](C(C)C)N(C)C(=O)OCc1ccc(NC(=O)[C@H](C)NC(=O)[C@@H](NC(=O)[C@H](CCC(=O)O)NC(=O)CCOCCC(=O)NCCNc2ncc(-c3cc(C)cc(F)c3)c(N3CCC(N)CC3)c2-c2nc3ccc(Cl)cc3[nH]2)C(C)C)c(O[C@@H]2O[C@H](CO)[C@@H](O)[C@H](O)[C@H]2O)c1)C(C)C [Compound 67] (X1-EVA[PABC(3-O-βDGlc)][NMeV]V[Dil][Dolaproine]-X2) | – | – | – | 41 nM | 6.7 nM | 0.19 nM
CC[C@H](C)[C@@H]([C@@H](CC(=O)N1CCC[C@H]1[C@H](OC)[C@@H](C)C(=O)N[C@H](C)[C@@H](O)c1ccccc1)OC)N(C)C(=O)[C@@H](NC(=O)[C@H](C(C)C)N(C)C(=O)OCc1ccc(O[C@@H]2O[C@H](C(=O)O)[C@@H](O)[C@H](O)[C@H]2O)c(NC(=O)[C@H](C)NC(=O)[C@@H](NC(=O)CCOCCC(=O)NCCNc2ncc(-c3cc(C)cc(F)c3)c(N3CCC(N)CC3)c2-c2nc3ccc(Cl)cc3[nH]2)C(C)C)c1)C(C)C [Compound 148] | – | – | – | 7.9 nM | 4.5 nM | 0.086 nM
COc1cc2cc(c1Cl)N(C)C(=O)CC(OC(=O)[C@@H](C)N(C)C(=O)CCSSCCOCCOCCOCCOCCC(=O)NCCNc1ncc(-c3cc(C)cc(F)c3)c(N3CCC(N)CC3)c1-c1nc3ccc(Cl)cc3[nH]1)[C@]1(C)OC1[C@@H](C)C1C[C@@](O)(NC(=O)O1)[C@H](OC)/C=C/C=C(\C)C2 (stereo partly drawn) [Compound 21] | – | – | – | 22.4 nM | 17.2 nM | 0.41 nM
CC[C@H](C)[C@@H]([C@@H](CC(=O)N1CCC[C@H]1[C@H](OC)[C@@H](C)C(=O)N[C@H](C)[C@@H](O)c1ccccc1)OC)N(C)C(=O)[C@@H](NC(=O)[C@H](C(C)C)N(C)C(=O)OCc1ccc(NC(=O)[C@H](CCCNC(N)=O)NC(=O)[C@@H](NC(=O)CCC(=O)NCCNc2ncc(-c3cc(C)cc(F)c3)c(N3CCC(N)CC3)c2-c2nc3ccc(Cl)cc3[nH]2)C(C)C)c(O[C@@H]2O[C@H](C(=O)O)[C@@H](O)[C@H](O)[C@H]2O)c1)C(C)C [Compound 75] | – | – | – | 16.5 nM | 8.9 nM | 0.54 nM
CC[C@H](C)[C@@H]([C@@H](CC(=O)N1CCC[C@H]1[C@H](OC)[C@@H](C)C(=O)N[C@H](C)[C@@H](O)c1ccccc1)OC)N(C)C(=O)[C@@H](NC(=O)[C@H](C(C)C)N(C)C(=O)OCc1ccc(NC(=O)[C@H](C)NC(=O)[C@@H](NC(=O)CCOCCNCCNc2ncc(-c3cc(C)cc(F)c3)c(N3CCC(N)CC3)c2-c2nc3ccc(Cl)cc3[nH]2)C(C)C)cc1C(=O)NCCN)C(C)C [Compound 89] | – | – | – | 60 nM | 66 nM | 0.71 nM
COc1cc2cc(c1Cl)N(C)C(=O)CC(OC(=O)[C@@H](C)N(C)C(=O)CCSSCCOCCOCCOCCOCCOCCOCCOCCOCCC(=O)NCCNc1ncc(-c3cc(C)cc(F)c3)c(N3CCC(N)CC3)c1-c1nc3ccc(Cl)cc3[nH]1)[C@]1(C)OC1[C@@H](C)C1C[C@@](O)(NC(=O)O1)[C@H](OC)/C=C/C=C(\C)C2 (stereo partly drawn) [Compound 22] | – | – | – | 27.1 nM | 26 nM | 0.36 nM
CC[C@H](C)[C@@H]([C@@H](CC(=O)N1CCC[C@H]1[C@H](OC)[C@@H](C)C(=O)N[C@H](C)[C@@H](O)c1ccccc1)OC)N(C)C(=O)[C@@H](NC(=O)[C@H](C(C)C)N(C)C(=O)OCc1ccc(NC(=O)[C@H](CCCNC(N)=O)NC(=O)[C@@H](NC(=O)CCOCCC(=O)NCCNc2ncc(-c3cc(C)cc(F)c3)c(N3CCC(N)CC3)c2-c2nc3ccc(Cl)cc3[nH]2)C(C)C)cc1C(=O)NCC(N)=O)C(C)C [Compound 125] | – | – | – | 3.4 nM | 3.9 nM | 0.17 nM
CC[C@H](C)[C@@H]([C@@H](CC(=O)N1CCC[C@H]1[C@H](OC)[C@@H](C)C(=O)N[C@H](C)[C@@H](O)c1ccccc1)OC)N(C)C(=O)[C@@H](NC(=O)[C@H](C(C)C)N(C)C(=O)OCc1ccc(NC(=O)[C@H](CCCNC(N)=O)NC(=O)[C@@H](NC(=O)CCCCC(=O)NCCNc2ncc(-c3cc(C)cc(F)c3)c(N3CCC(N)CC3)c2-c2nc3ccc(Cl)cc3[nH]2)C(C)C)c(O[C@@H]2O[C@H](C(=O)O)[C@@H](O)[C@H](O)[C@H]2O)c1)C(C)C [Compound 63] | – | – | – | 13 nM | 16 nM | 0.16 nM
COc1cc2cc(c1Cl)N(C)C(=O)CC(OC(=O)[C@@H](C)N(C)C(=O)CCSSCCC(=O)NCCNc1ncc(-c3cc(C)cc(F)c3)c(N3CCC(N)CC3)c1-c1nc3ccc(C(N)=O)cc3[nH]1)[C@]1(C)OC1[C@@H](C)C1C[C@@](O)(NC(=O)O1)[C@H](OC)/C=C/C=C(\C)C2 (stereo partly drawn) [Compound 23, (16E,18E)-11-chloro-21-hydroxy-12,20-dimethoxy-2,5,9,16-tetramethyl-8,23-dioxo-4,24-dioxa-9,22-diazatetracyclo[19.3.1.1^10,^14.0^3,^5]hexacosa-10,12,14(26),16,18-pentaen-6-yl 2-[3-({2-[(2-{[4-(4-aminopiperidin-1-yl)-3-(6-carbamoyl-1H-1,3-benzodiazol-2-yl)-5-(3-fluoro-5-methylphenyl)pyridin-2-yl]amino}ethyl)carbamoyl]ethyl}disulfanyl)-N-methylpropanamido]propanoate] | – | – | – | 132 nM | 245 nM | 0.66 nM
CC[C@H](C)[C@@H]([C@@H](CC(=O)N1CCC[C@H]1[C@H](OC)[C@@H](C)C(=O)N[C@H](C)[C@@H](O)c1ccccc1)OC)N(C)C(=O)[C@@H](NC(=O)[C@H](C(C)C)N(C)C(=O)OCc1ccc(NC(=O)[C@H](C)NC(=O)[C@@H](NC(=O)[C@H](CS(=O)(=O)O)NC(=O)CCOCCC(=O)NCCNc2ncc(-c3cc(C)cc(F)c3)c(N3CCC(N)CC3)c2-c2nc3ccc(Cl)cc3[nH]2)C(C)C)cc1C(=O)NCCN)C(C)C [Compound 117] | – | – | – | 3.7 nM | 2.6 nM | 0.081 nM
CC[C@H](C)[C@@H]([C@@H](CC(=O)N1CCC[C@H]1[C@H](OC)[C@@H](C)C(=O)N[C@H](C)[C@@H](O)c1ccccc1)OC)N(C)C(=O)[C@@H](NC(=O)[C@H](C(C)C)N(C)C(=O)OCc1ccc(NC(=O)[C@H](C)NC(=O)[C@@H](NC(=O)CCOCCC(=O)NCCNc2ncc(-c3cc(C)cc(F)c3)c(N3CCC(N)CC3)c2-c2nc3ccc(Cl)cc3[nH]2)C(C)C)cc1C(=O)NCCN)C(C)C [Compound 86] | – | – | – | 1.1 nM | 15 nM | 0.36 nM
CC[C@@]1(O)C(=O)OCc2c1cc1n(c2=O)Cc2c-1nc1cc(F)c(C)c3c1c2[C@@H](NC(=O)OCc1ccc(NC(=O)[C@H](CCCNC(N)=O)NC(=O)[C@@H](NC(=O)CCOCCOCCOCCOCCC(=O)NCCNc2ncc(-c4cc(C)cc(F)c4)c(N4CCC(N)CC4)c2-c2nc4ccc(Cl)cc4[nH]2)C(C)C)cc1)CC3 [Compound 38] | 59.4 nM | 1 nM | 0.11 nM | – | – | –
